Data taken from ChEMBL document CHEMBL5518172, “Discovery of hydroxamate as a promising scaffold dually inhibiting metallo- and serine-β-lactamases” (Eur J Med Chem, 2024).
pIC50: −log10 of the molar value. Calls of active or inactive are those of the source. The calls are words filed in the database; no cut-off is given here.

What was measured:
Escherichia coli [1] = assay: Synergistic antibacterial activity against Escherichia coli clinical isolate 10 assessed as decrease in bacterial colony at 128 microg/ml incubated for 12 hrs in presence of meropenem by imaging analysis; type: functional, organism-based; conditions: dose 128.0 µg/ml
Bacteria [2] = assay: Inhibition of recombinant IMP-1 (unknown origin) expressed in Escherichia coli BL21 (DE3) cells assessed as maximal inhibition at 5 uM incubated for 10 hrs
Escherichia coli [3] = assay: Synergistic antibacterial activity against Escherichia coli BL21 (DE3) harboring NDM-1 assessed as meropenem MIC at 64 microg/ml measured after 16 hrs by CLSI protocol based broth microdilution method (reference value: 256 microg/ml); type: functional; conditions: dose 64 µg/ml
Escherichia coli [4] = assay: Synergistic antibacterial activity against Escherichia coli BL21 (DE3) harboring serine beta lactamase OXA-48 assessed as decrease in bacterial colony at 128 microg/ml incubated for 12 hrs in presence of meropenem by imaging analysis; type: functional, organism-based; conditions: dose 128.0 µg/ml
Escherichia coli [5] = assay: Synergistic antibacterial activity against Escherichia coli BL21 (DE3) harboring metallo-beta lactamase IMP-1 assessed as fold decrease in meropenem MIC at 64 microg/ml measured after 16 hrs by CLSI protocol based broth microdilution method; type: functional; conditions: dose 64 µg/ml
Bacteria [6] = assay: Irreversible inhibition of recombinant serine beta lactamase OXA-48 (unknown origin) expressed in Escherichia coli BL21 (DE3) cells using cefazolin as substrate assessed as reduction in residual activity at 5 uM preincubated for 6 hrs followed by dialysis and measured after 24 hrs
Escherichia coli [7] = assay: Synergistic antibacterial activity against Escherichia coli BL21 (DE3) harboring serine beta lactamase KPC-2 assessed as meropenem MIC at 64 microg/ml measured after 16 hrs by CLSI protocol based broth microdilution method (reference value: 16 microg/ml); type: functional; conditions: dose 64 µg/ml
Bacteria [8] = assay: Inhibition of recombinant serine beta lactamase KPC-2 (unknown origin) expressed in Escherichia coli BL21 (DE3) cells using cefazolin as substrate assessed as residual activity at 20 uM relative to control
[9] = target: Metallo-beta-lactamase type 2 (Bacteria) (UniProt C7C422); assay: Destabilization of recombinant NDM-1 (unknown origin) expressed in Escherichia coli BL21 (DE3) cells assessed as thermal stabilization by measuring melting temperature at 50 uM incubated under 25 to 80 degreeC by SYPRO orange dye based thermal shift assay (reference value: 52.6 degreeC)
Chain of Metallo-beta-lactamase type 2 (Bacteria) (C7C422 whole entry): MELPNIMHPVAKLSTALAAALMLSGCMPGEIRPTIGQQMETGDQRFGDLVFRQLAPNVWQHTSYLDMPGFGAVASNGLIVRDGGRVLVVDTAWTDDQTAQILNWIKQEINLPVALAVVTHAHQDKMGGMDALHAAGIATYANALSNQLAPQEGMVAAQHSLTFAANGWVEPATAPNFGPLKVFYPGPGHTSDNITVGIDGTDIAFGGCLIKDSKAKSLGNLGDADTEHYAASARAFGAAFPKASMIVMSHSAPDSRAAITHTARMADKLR

Bacteria [10] = assay: Inhibition of recombinant serine beta lactamase OXA-48 (unknown origin) expressed in Escherichia coli BL21 (DE3) cells assessed as maximal inhibition at 5 uM measured after 0.5 hrs
Bacteria [11] = assay: Inhibition of recombinant metallo-beta-lactamase L-1 (unknown origin) expressed in Escherichia coli BL21 (DE3) cells using cefazolin as substrate at 20 uM by spectrometric analysis relative to control
[12] = target: Metallo-beta-lactamase type 2 (Bacteria) (UniProt C7C422); assay: Inhibition of recombinant NDM-1 (unknown origin) expressed in Escherichia coli BL21 (DE3) cells using meropenem as substrate assessed as reduction in residual activity; conditions: dose 0.075-20 µM
Escherichia coli [13] = assay: Synergistic antibacterial activity against Escherichia coli clinical isolate 06 assessed as fold decrease in meropenem MIC at 64 microg/ml measured after 16 hrs by CLSI protocol based broth microdilution method; type: functional; conditions: dose 64 µg/ml
[14] = target: Metallo-beta-lactamase type 2 (Bacteria, UniProt C7C422); assay: Inhibition of recombinant NDM-1 (unknown origin) expressed in Escherichia coli BL21 (DE3) cells using meropenem as substrate by spectrometric analysis
Chain of Metallo-beta-lactamase type 2 (C7C422 whole entry): as above

Bacteria [15] = assay: Inhibition of recombinant serine beta lactamase KPC-2 (unknown origin) expressed in Escherichia coli BL21 (DE3) cells assessed as maximal inhibition at 5 uM incubated for 2.5 hrs

With `O=C(CCCc1ccccc1)NOC(=O)OCc1ccccc1` the Activity (Escherichia coli [1]) was “Active”, the inhibition (Bacteria [2]) was “Active” and the MIC (Escherichia coli [3]) was 32 µg/mL. The Activity (Escherichia coli [4]) was “Active”, the “fold change (FC)” value (Escherichia coli [5]) was 4 and the inhibition (Bacteria [6]) was “Active”. For the same compound, the MIC (Escherichia coli [7]) was 4 µg/mL, the Activity (Bacteria [8]) was < 10% and the Tm [9] was 49.8 °C. For the same compound, the inhibition (Bacteria [10]) was “Active”, the inhibition (Bacteria [11]) was < 42% and the inhibition [12] was “Dose-Dependent Effect”. The “fold change (FC)” value (Escherichia coli [13]) was 2, the pIC50 [14] was 6.19 and the inhibition (Bacteria [15]) was “Active”.
